Laboratory results: patent US10561379B2, “In vivo positron emission tomography-based perfusion/blood pool imaging using labeled erythrocytes” (H. LEE MOFFITT CANCER CENTER AND RESEARCH INSTITUTE, INC., priority 2016, dated 2020)

How the values were obtained:
[1] = system: human red blood cells; assay: FDG labeling of human red blood cells, 5 minute incubation at room temperature (Example 1); type: cell-based
Procedure: 150 microCuries of FDG in a 100 microliter volume was incubated with 250 microliters of human red blood cells to a final solution volume of 500 microliters (NaCl/KCl/EDTA solution contains 140 mM NaCl, 4 mM KCl, 2.5 mM K2EDTA dihydrate). FDG incubation duration=5 minutes at room temperature. Triplicate samples were used. Samples were centrifuged 1000 g 10 minutes after 5 minute FDG incubation, and RBC pellet was washed twice with 1.0 ml of NaCl/KCl/EDTA solution. A sample of the collected supernatant and a pellet sample was counted in a gamma counter with 18-F gating. 3% incorporation rate=4.5 microCurie of incorporated FDG/250 microliters of human red blood cell=18 microCurie of FDG/1 ml human red blood cells. Thus, 60 milliliters of whole blood from a patient should yield approximately 432-486 microCuries of FDG labeled red blood cells. (Assumes average 40% female hematocrit and 45% male hematocrit).

[2] = system: human RBCs; assay: FDG uptake by human RBCs (% total FDG incorporation, dose calibrator counting); type: cell-based; details: for mean % total FDG incorporation: 30' 37° C. incubation with 37-74 MBq FDG (text b108)
Procedure: […] 30′, centrifuged 1000 g 10′, and washed twice in 4× volume 1×EDTA solution. […] Sample/wash aliquots were counted in an Atomlab 600 dose calibrator (Biodex) to measure % retained FDG.
Human red blood cell (RBC) preparation and FDG-RBC labeling: Packed human red blood cells collected in standard anticoagulant citrate dextrose (ACD) solution (either ≤24 hours post phlebotomy or ˜5 day post phlebotomy) were obtained from Zen-Bio, Inc. 370-740 Megabecquerel (MBq) (1 ml) USP grade 2-deoxy-2-(^18F)fluoro-D-glucose (FDG) were obtained from Cardinal Health. Vendor supplied human RBCs are centrifuged 1000 g 10′, and the remaining anticoagulant and buffy coat residual are gently aspirated. RBCs are then gently washed in a 4× volume of filter sterilized “1×EDTA” solution (140 mM NaCl, 4 mM KCl, 2.5 mM Ethylenediaminetetraacetic acid dipotassium salt dihydrate (K2EDTA dihydrate)), centrifuged at 1000 g 10′, and the wash is manually aspirated. […] Samples are then centrifuged at 1000 g 10′ and the supernatant is carefully aspirated. RBCs are then washed and centrifuged twice with 4× volumes of 1×EDTA solution. For experiments characterizing residual unincorporated FDG, a 3rd wash/centrifugation step was performed. […] Aliquots from all samples and washes are counted with the Atomlab™ 600 dose calibrator (Biodex Medical Systems, Inc.).

[3] = system: splenectomized NSG immunodeficient mouse; assay: microPET imaging of mice injected with FDG-labeled human erythrocytes or free FDG (Example 2); type: in vivo; details: tail vein catheter injection (≈47 microCuries FDG-labeled erythrocytes or ≈32 microCuries free FDG), 20-minute PET
Procedure: Approximately 47 microCuries of FDG-labeled human erythrocytes were injected via tail vein catheter into a splenectomized NSG immunodeficient mouse. The mouse was placed into a Siemens INVEON microPET scanner, and 18-F PET imaging of the mouse was performed over a 20-minute time period.
Approximately 32 microCuries of free FDG were injected via tail vein catheter into a second splenectomized NSG immunodeficient mouse. The mouse was placed into the Siemens INVEON microPET scanner, and 18-F PET imaging of the mouse was performed over a 20-minute time period.

[4] = system: splenectomized NSG immunodeficient mice; assay: ECG-gated whole body microPET/CT imaging of NSG immunodeficient mice; type: in vivo, mouse; details: for time activity curve (TAC) of the heart, pattern: observation period 20-30 minutes; for anatomic distribution of FDG in the heart (fused microPET/CT images) / whole body distribution of FDG activity on microPET image / urinary excretion of FDG (kidneys, bladder) on microPET image: tail vein injection; for whole body distribution of FDG activity on microPET image: injected activity differs per figure
Procedure: 4-6 wk old splenectomized NSG immunodeficient mice (Jax Lab) were fasted O/N and phlebotomized (200-250 μl), prior to microPET imaging with an INVEON PET/CT preclinical scanner (Siemens). […]
PET images were analyzed with INVEON workstation software (Siemens). Patlak compartment plot option was chosen. For 3D PET and 4D PET data sets, VOIs were selected manually based on corresponding CT images: heart, leg muscle, liver, kidney and brain.
ECG-gated whole body microPET imaging of NSG immunodeficient mice: 4-6 week old splenectomized NOD scid gamma (NSG™) immunodeficient mice were obtained from The Jackson Laboratory. Mice were placed in specialized housing for immunodeficient mouse in the Moffitt Cancer Center (MCC) vivarium. Approval for all animal experimentation was first obtained from the University of South Florida (USF) Institutional Animal Care and Use Committee (IACUC). All animal experimentation was performed in accordance to federal regulations and USF IACUC principles and procedures. Animal imaging was performed in the MCC Small Animal Imaging Laboratory with an INVEON PET/CT (Siemens Medical Inc., Knoxville, Tenn.) preclinical scanner. Mice are first fasted the night before microPET imaging and undergo phlebotomy of ≈200-250 μl whole blood via retro-orbital venous plexus puncture immediately prior to microPET imaging. Blood glucose from the phlebotomized blood is measured. A tail vein microcatheter is placed in each mouse under inhalational isoflurane anesthesia. […] The PET part of the system has 64 detector blocks with total field of view (FOV) 12.7 cm and a spatial resolution of 1.4 mm. […] The ECG signal in each mouse was detected with three flat electrodes placed in two front and one rear limbs of each animal (ground lead on a rear leg). […] The threshold for TTL cardiac gating signals was set in a rising mode of R-wave peak. The PET list-mode data were reconstructed using 3D-OSEM iterative algorithm with four iterations and eight subsets, with a final image volume of 256×256×256 voxels. Voxel effective dimensions were 1.4×1.4×1.4 mm. For each animal there are three data sets: standard 3-dimensional (3D) PET reconstruction, resulting in a motion-time average 3D PET image; dynamic 3D PET reconstruction with 30 frames; and the phase-based 4-dimensional (regular 3-dimensional plus time, 4D) PET cardiac reconstruction, with four cardiac gates binning. In all cases, CT attenuation correction was applied to the PET images.
PET images of the mice were analyzed using INVEON Workstation Software (Siemens Medical Inc., Knoxville, Tenn.). Vendor software-supplied Patlak compartment plot option was selected (Patlak et al., 1983). For 3D PET and 4D PET data sets multiple volumes of interest (VOI) were selected manually based on corresponding CT images including: heart, leg muscle, liver, kidney and brain. […] Dynamic activity curves were plotted for VOIs using dynamic 3D PET data set for each animal. The 4D PET data were used for defining cardiac function. First the heart was segmented on CT images based on anatomical features, after that segmented volume (cardiac PET VOI) was transferred into co-registered PET images.

For 2-deoxy-2-(^18F)fluoro-D-glucose [FDG], the incorporation rate ([1]; 150 microCuries FDG, 250 microliters human red blood cells, 5 minutes at room temperature) was 3%, the “FDG/1 ml human red blood cells” value ([1]; 5 minutes at room temperature) was 18 microCurie and the “incorporated FDG/250 microliters of human red blood cell” value ([1]; 5 minutes at room temperature, 150 microCuries FDG) was 4.5 microCurie. The “FDG labeled red blood cells yielded from 60 milliliters of whole blood from a patient” value ([1]; extrapolated, assumes 40% female and 45% male hematocrit) was 432-486 microCuries, the “FDG incorporated in packed RBCs on clinical translation of the labeling/wash protocol” value ([2]; 10 ml's packed RBCs, initial 740 MBq FDG, inventor's prediction) was “up to 370 MBq” and the “mean % total FDG incorporation” value ([2]; 250 μl 1 day old RBCs) was 85.3%±1.8%. The “% total FDG incorporation” value ([2]; 250 μl 1 day old human RBCs, 37° C., 30' (text b110)) was 73.3%±3.6%, the “% total FDG incorporation” value ([2]; 250 μl 1 day old human RBCs, 37° C., 30 minutes (time course)) was 78.3%±0.9 and the “% total FDG incorporation” value ([2]; 250 μl 1 day old human RBCs, 37° C., 1 hour (time course)) was 85.0%±0.0%. For the same substance, the “% total FDG incorporation” value ([2]; 250 μl 1 day old human RBCs, 37° C., 2 hours (FIG. 3 legend)) was 73.3%±3.6%, the “% total FDG incorporation” value ([2]; 250 μl 1 day old human RBCs, 37° C., 2 hours (time course)) was 85.3%±0.3% and the “% total FDG incorporation” value ([2]; 250 μl 1 day old human RBCs, 2 hours (FIG. 4 legend)) was 85.3%±1.8%. The “% total FDG incorporation” value ([2]; 250 μl 1 day old human RBCs, room temperature (~25° C.), 2 hours) was 10.3%±1.1%, the “% total FDG incorporation” value ([2]; 250 μl 5 day old human RBCs, 2 hours (FIG. 4 legend)) was 3.3%±0.2% and the “mean % total FDG incorporation” value ([2]; 5 day old RBCs) was 3.3%±0.2%. For the same substance, the “internal FDG uptake (in words)” value ([2]; human RBCs collected and used ≈5 days after phlebotomy) was “negligible rate of internal FDG uptake”, the “tracer distribution on PET image” value [3] was “majority of free FDG uptake is seen in the heart muscle, bladder, and kidneys” and the “time activity curve (TAC) of the heart, pattern” value [4] was “increases steadily over the observation period of 20-30 minutes”. The “time activity curve (TAC) of the heart, pattern” value ([4]; listed as free FDG) was “steady increase in FDG activity over time”, the “anatomic distribution of FDG in the heart (fused microPET/CT images)” value [4] was “marked myocardial uptake of FDG in the left ventricle” and the “whole body distribution of FDG activity on microPET image” value ([4]; listed as free 18F-FDG) was “normal marked FDG uptake in the myocardium”. For the same substance, the “whole body distribution of FDG activity on microPET image” value ([4]; listed as free FDG) was “intense FDG accumulation in the myocardium and brain”, the “anatomic distribution of FDG in the heart (fused microPET/CT images)” value ([4]; listed as free 18F-FDG) was “intense physiologic FDG uptake by myocardium of the left ventricle” and the “urinary excretion of FDG (kidneys, bladder) on microPET image” value ([4]; listed as free 18F-FDG) was “physiologic FDG excretion into the kidneys and bladder”. The “urinary excretion of FDG (kidneys, bladder) on microPET image” value ([4]; listed as free FDG) was “marked urinary excretion in the kidneys and bladder”.
